According to US20090061022A1, “Pharmaceutical composition comprising arsenite for the treatment of malignancy” (priority 2004, published 2009):
Where “and” joins values, the source holds several entries; their conditions need not be identical. Equal entries are not always repeated.

What was measured:
CCRF-CEM = assay: Cytotoxic activity, propidium iodide fluorescence assay, panel of 9 human cancer cell lines; format: cell-based; conditions: CCRF-CEM leukemia, 3-7 days
Protocol: (§1) Three kinds of stock solutions were prepared for in vitro cytotoxic activity test. The first solution is DMSO (dimethyl sulfoxide) mixed with sodium meta-arsenite. […] The third solution is DMSO mixed with arsenic acid sodium salt. Those three solutions were diluted with culture medium (RPMI 1640). The final concentrations of DMSO in those three solutions are less than 0.3 vol %.
(§2) Nine kinds of human cancer cell lines out of six kinds of cancers were grown at 37° C. under a controlled atmosphere of 95% air and 5% CO2. The cells were grown on monolayer cultures of RPMI 1640 cell culture medium supplemented with 10% fetal calf serum.
(§3) The grown cells were harvested from exponential phase cultures by trypsinization and counted. The counted cells were placed in a plate, which has ninety six wells. Each well on the plate is in a shape of a flat-bottomed microtitre. Density of the cells in a suspension was adjusted depending on the cell line. The suspension was prepared by diluting the grown cells with the culture medium (RPMI 1640). Concentration of the cells were varied from 5×10^4 to 1×10^5 viable cells/ml. 100 μl of the suspension was placed in each well of the plate. […] Then add 50 μl of culture medium (RPMI 1640) only to 6 wells, 50 μl/well, among the 96 wells of one plate. It is called controlled. One well is filled with culture medium plus 5-FU. And another 50 μl of culture medium plus one of the stock solutions were added to each of the left 89 wells to allow cells to resume exponential growth.
(§4) The cytotoxic activity test was executed with three plates simultaneously to check reliability of the data obtained. The three plates contain the same samples of cancer cells. The three plates were then incubated for 3-7 days under the same controlled atmosphere and cell proliferation was assessed with a modified propodium iodide fluorescence assay. After thawing of the plates, fluorescence was measured using a Millipore Cytofluor 2350-microplate reader (excitation 530 nm emission 620 nm) in order to quantify the total cell number. The assay included untreated and positive controls containing 5-FU.
(§5) Growth inhibition is defined as (numbers of cancer cell alive) treated (T)/(number of cells) control (C)×100% (T/C %).

HT29 = assay: as above; format: cell-based; conditions: HT29 colon cancer, 3-7 days
Protocol: as §1, §2, §3, §4, §5

K562 = assay: as above; format: cell-based; conditions: K562 leukemia, 3-7 days
Protocol: as §1, §2, §3, §4, §5

LXFL 529L = assay: as above; format: cell-based; conditions: LXFL 529L NSCLC, 3-7 days
Protocol: as §1, §2, §3, §4, §5

MEXF 462NL = assay: as above; format: cell-based; conditions: MEXF 462NL melanoma, 3-7 days
Protocol: as §1, §2, §3, §4, §5

RXF 944L = assay: as above; format: cell-based; conditions: RXF 944L renal cancer, 3-7 days
Protocol: as §1, §2, §3, §4, §5

[1] = test system: panel of 9 human cancer cell lines; assay: Cytotoxic activity, whole panel of 9 human cancer cell lines (means, active/total); format: cell-based; conditions: for Active/Total cancer cell lines / Active/Total cancer cell lines, percent: active = T/C<30
Protocol: as §1, §2
as §3, with “1640).” for “1640). Concentration of the cells were varied from 5×10^4 to 1×10^5 viable cells/ml. 100 μl of the suspension was placed in each well of the plate.”
as §4, §5

[2] = test system: panel of 12 human cancer cell lines; assay: Cytotoxic activity, whole panel of 12 human cancer cell lines, modified propidium iodide assay; conditions: for times more potent than arsenic acid sodium salt: panel of 12
Protocol: as §2, §3
In a further study, the cytotoxic activity profile of sodium meta-arsenite and arsenic acid sodium salt was investigated in different panels containing twelve (12) human cancer cell lines from eight (8) kinds of human cancers. The cancer cell samples were prepared as described in 1-1-B. Propidium iodide fluorescence assay method for this test was modified as the follows.

[3] = Maximum tolerated dose assessment after daily oral gavages for 14 days in the rat; format: in vivo, Wistar rats; conditions: for Findings / Findings (mortality): rat; for MTD (or LD10 value): rats, oral once daily 14 days, calculated
Protocol: The objective of this oral toxicity study was to establish a MTD after repeated administration of sodium meta-arsenite to rats.
Ampoules of sodium meta-arsenite (dissolved in 10% (w/v) glucose in water) in concentrations of 1.2, 2.2, 3.8, 7.0 and 12.6 mg/ml were stored in a refrigerator in the dark. Based on the previous study, the following doses were selected: 6, 11, 19, and 35 and 63 mg/kg/day. Each dose was administered daily by oral gavages to groups of 4 male and 4 female Wistar rats for 14 days, followed by a 14-day recovery period.
Clinical signs were evaluated daily, and body weights were recorded twice weekly. Scheduled termination was performed on day 29 (after 14 days of recovery). Macroscopic examination was performed on all animals.

[4] = mean over human cancer cell lines tested (9 line panel)
[5] = panel of 12 human cancer cell lines, 4 days

In the case of `O=[As][O-].[Na+]` [Sodium meta-arsenite, sodium meta-arsenite], the “T/C % at drug concentration” value (CCRF-CEM; 1 μg/ml) is reported as 48%, the “T/C % at drug concentration” value (CCRF-CEM; 10 μg/ml) is reported as 43% and the “T/C % at drug concentration” value (CCRF-CEM; 100 μg/ml) is reported as 29%. For the same compound, the “T/C % at drug concentration” value (HT29; 1 μg/ml) was 91%, the “T/C % at drug concentration” value (HT29; 3 μg/ml) was 60% and the “T/C % at drug concentration” value (HT29; 10 μg/ml) was 40%. The “T/C % at drug concentration” value (HT29; 30 μg/ml) was 22%, the “T/C % at drug concentration” value (HT29; 100 μg/ml) was 14% and the “T/C % at drug concentration” value (K562; 1 μg/ml) was 51%. For the same compound, the “T/C % at drug concentration” value (K562; 3 μg/ml) was 15%, the “T/C % at drug concentration” value (K562; 10 μg/ml) was 15% and the “T/C % at drug concentration” value (K562; 30 μg/ml) was 18%. The “T/C % at drug concentration” value (K562; 100 μg/ml) was 13%, the “T/C % at drug concentration” value (LXFL 529L; 1 μg/ml) was 79% and the “T/C % at drug concentration” value (LXFL 529L; 3 μg/ml) was 61%. The “T/C % at drug concentration” value (LXFL 529L; 10 μg/ml) was 21%, the “T/C % at drug concentration” value (LXFL 529L; 30 μg/ml) was 7% and the “T/C % at drug concentration” value (LXFL 529L; 100 μg/ml) was 4%. The “T/C % at drug concentration” value (MEXF 462NL; 1 μg/ml) was 112%, the “T/C % at drug concentration” value (MEXF 462NL; 3 μg/ml) was 120% and the “T/C % at drug concentration” value (MEXF 462NL; 10 μg/ml) was 101%. For the same compound, the “T/C % at drug concentration” value (MEXF 462NL; 30 μg/ml) was 91%, the “T/C % at drug concentration” value (MEXF 462NL; 100 μg/ml) was 15% and the “T/C % at drug concentration” value (RXF 944L; 1 μg/ml) was 124%. The “T/C % at drug concentration” value (RXF 944L; 3 μg/ml) was 79%, the “T/C % at drug concentration” value (RXF 944L; 10 μg/ml) was 57% and the “T/C % at drug concentration” value (RXF 944L; 30 μg/ml) was 32%. The “T/C % at drug concentration” value (RXF 944L; 100 μg/ml) was 9%, the “Active/Total cancer cell lines” value ([1]; 1 μg/ml) was 1/9 and the “Active/Total cancer cell lines, percent” value ([1]; 1 μg/ml) was 11%. The “Active/Total cancer cell lines” value ([1]; 3 μg/ml) was 2/8, the “Active/Total cancer cell lines, percent” value ([1]; 3 μg/ml) was 25% and the “Active/Total cancer cell lines” value ([1]; 10 μg/ml) was 3/9. For the same compound, the “Active/Total cancer cell lines, percent” value ([1]; 10 μg/ml) was 33%, the “Active/Total cancer cell lines” value ([1]; 30 μg/ml) was 4/8 and the “Active/Total cancer cell lines, percent” value ([1]; 30 μg/ml) was 50%. For the same compound, the “Active/Total cancer cell lines, percent” value ([1]; 100 μg/ml) was 89%, the “Assessment from comparison of the IC50 values” ([1]; 9 cell line panel) was “most potent compound of the series” and the IC50 [1, 4] was 56 µM. The IC90 [1, 4] was 490 µM, the “Mean IC50” value [1, 4] was 7.3 µg/mL and the “Mean IC70” value [1, 4] was 19.8 μg/ml and 152 μM. The “Mean IC90” value [1, 4] was 63.7 µg/mL, the “human cancer cell lines in which active, percent of 12” value ([2]; 1 μg/ml) was 33% and the “human cancer cell lines in which active, percent of 12” value ([2]; dose level 10 μg/ml) was 100%. The “human cancer cell lines in which active, percent of 12” value ([2]; dose level 100) was 100%, the “cytotoxic activity in panel of 12” value ([2]; dose level lower than 1 μg/ml) was “did not display any cytotoxic activity at all” and the “times more potent than arsenic acid sodium salt” value ([2]; in μg/ml) was “over 20 times”. The “times more potent than arsenic acid sodium salt” value ([2]; on a molar basis) was “approximately 10 times”, the “Mean IC50” value [2, 5] was 0.9 µg/mL and the “Mean IC70” value [2, 5] was 2.0 μg/ml and 15 μM. The “Mean IC90” value [2, 5] was 6.8 µg/mL, the IC50 ([2]; read-out: Mean IC50, panel of 12 human cancer cell lines, 4 days) was 7 µM and the IC90 ([2]; read-out: Mean IC90, panel of 12 human cancer cell lines, 4 days) was 52 µM. For the same compound, the Findings ([3]; 6 mg/kg/day oral gavage 14 days) was “No findings were noted”, the Findings ([3]; 11 mg/kg/day oral gavage 14 days) was “Hunched posture was noted in one male from day 7-13 of treatment, diarrhea was observed for one male on day 6” and the Findings ([3]; 19 mg/kg/day oral gavage 14 days) was “Hunched posture (day 6-14 of treatment) was noted in 2 males”. The “Findings (mortality)” value ([3]; 35 mg/kg/day oral gavage 14 days) was “One male was found dead on day 13 of treatment, all females died between days 3 to 6”, the “Findings (mortality)” value ([3]; 63 mg/kg/day oral gavage 14 days) was “All animals died on days 2 to 5” and the “MTD (or LD10 value)” value ([3]; females) was 25 mg/kg/day. For the same compound, the “MTD (or LD10 value)” value ([3]; males) was 33 mg/kg/day.
